pIC50: −log10 of the molar value. Read-outs that look alike come from different tables or passages of the source.
Target: T1, recombinant human PAI-1 (Homo sapiens, UniProt P05121)
T1 construct: purchased Molecular Innovations, Inc
Assay: Test Example 2: human PAI-1 inhibitory activity (tPA fluorogenic substrate, pH 7.4 HEPES buffer)
Type: biochemical
Method: 0.1 M HEPES, 0.1 M NaCl. 1 mM EDTA. 0.1% Polyethylene glycol 8,000 (Hampton Research Corporation),
2 mM Dimethyldecylphoshine oxide [Apo-10] (Fluka Corporation)

[1] = human PAI-1, compound concentration 1 μM
[2] = human PAI-1, compound concentration 3 μM
[3] = human PAI-1, compound concentration 10 μM
[4] = human PAI-1, compound concentration 25 μM
[5] = human PAI-1, compound concentration 0.1 μM
[6] = human PAI-1, compound concentration 0.3 μM
[7] = human PAI-1, calculated from the inhibition rates
[8] = human PAI-1, compound concentration 0.1 μM, 0.1 µM
[9] = human PAI-1, compound concentration 1 μM, 1 µM
[10] = read-out: Inhibition Rate of PAI-1 Activity (%)

T1 sequence (P05121 24-402): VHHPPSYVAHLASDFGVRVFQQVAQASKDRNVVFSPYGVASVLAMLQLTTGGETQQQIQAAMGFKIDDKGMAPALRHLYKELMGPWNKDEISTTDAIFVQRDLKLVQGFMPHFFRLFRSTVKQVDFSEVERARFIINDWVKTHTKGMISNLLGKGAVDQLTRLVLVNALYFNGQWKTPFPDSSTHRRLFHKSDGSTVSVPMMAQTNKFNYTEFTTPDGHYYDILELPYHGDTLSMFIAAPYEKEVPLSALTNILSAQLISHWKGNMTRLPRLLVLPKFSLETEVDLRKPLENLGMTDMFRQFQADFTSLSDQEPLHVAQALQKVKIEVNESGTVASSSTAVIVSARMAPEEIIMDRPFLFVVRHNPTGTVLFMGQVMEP

| SMILES | Inhibition Rate of PAI-1 Activity (%) [1] [%] | Inhibition Rate of PAI-1 Activity (%) [2] [%] | Inhibition Rate of PAI-1 Activity (%) [5] [%] | Inhibition Rate of PAI-1 Activity (%) [6] [%] | further results |
| --- | --- | --- | --- | --- | --- |
| CC(C)(C)c1ccc(CN(C(=O)C(=O)O)c2ccc(N3CCN(c4ccccc4)CC3)cc2)cc1 [Compound 627] | 0 | 14 | – | – | Inhibition Rate of PAI-1 Activity (%) [3]: 57%; Inhibition Rate of PAI-1 Activity (%) [4]: >99% |
| CC(C)(C)c1ccc(Oc2cc(-c3ccccc3OC(F)(F)F)ccc2OCC(=O)O)cc1 [Compound 456] | 70 | 98 | 7 | 13 | – |
| O=C(O)C(=O)N(CCCCc1ccccc1)c1ccc(N2CCCC2)c(-c2ccc(OC(F)(F)F)cc2)c1 [Compound 673] | >99 | >99 | 0 | 15 | – |
| CCCCC(Oc1cc(Oc2ccc(OC(F)(F)F)cc2)ccc1OCc1ccc(C(C)(C)C)cc1)C(=O)O (centres unmarked) [Compound 308] | – | – | – | – | pIC50 [7]: 6.17 |
| CC(C)(C)c1ccc(Sc2cc(-c3ccc(OC(F)(F)F)cc3)ccc2C(=O)O)cc1 [Compound 547] | 97 | >99 | 4 | 17 | – |
| CCCCC(Oc1ccc(-c2ccc(OC(F)(F)F)cc2)cc1Oc1ccc(C(C)(C)C)cc1)C(=O)O (centres unmarked) [Compound 305] | – | – | – | – | pIC50 [7]: 6.03 |
| CCCCCOc1cc(-c2ccc(OC(F)(F)F)cc2)cc(OCc2ccc(C(C)(C)C)cc2)c1OCC(=O)O [Compound 301] | – | – | – | – | pIC50 [7]: 6.33 |
| CCCCN(CC(=O)O)c1cc(-c2ccc(OC(F)(F)F)cc2)ccc1Oc1ccc(C(C)(C)C)cc1 [Compound 428] | 92 | 94 | 18 | 36 | – |
| CC(C)(C)C1CCC(CN(C(=O)C(=O)O)c2ccc(-c3ccc(OC(F)(F)F)cc3)cc2)CC1 (centres unmarked) [Compound 680] | – | >99 | – | 9 | Inhibition Rate of PAI-1 Activity (%) [8]: 7%; Inhibition Rate of PAI-1 Activity (%) [9]: 77% |
| O=C(O)CC(=O)N(Cc1ccccc1)c1ccc(-c2ccc(OC(F)(F)F)cc2)cc1F [Compound 602] | 9 | 18 | – | – | Inhibition Rate of PAI-1 Activity (%) [3]: 78%; Inhibition Rate of PAI-1 Activity (%) [4]: >99% |
| CCCCCOc1ccc(-c2ccc(OC(F)(F)F)cc2)cc1N(CCCSc1ccccc1)C(=O)C(=O)O [Compound 357] | – | – | – | – | pIC50 [7]: 6.11; inhibition at 3 µM [10]: > 99% |
| CCC(CC)Oc1ccc(-c2ccc(OC(F)(F)F)cc2)cc1N(CCCCc1ccccc1)C(=O)C(=O)O [Compound 369] | – | – | – | – | pIC50: 6.16 |
| CC(C)(C)c1ccc(Oc2ccc(Nc3ccc(OC(F)(F)F)cc3)cc2CCC(=O)O)cc1 [Compound 432] | 25 | 97 | 4 | 0 | – |
| CCCCCCCCCOc1ccc(N(CCCCc2ccccc2)C(=O)C(=O)O)cc1-c1ccc(OC(F)(F)F)cc1 [Compound 387] | – | – | – | – | pIC50: > 7.00; inhibition at 0.3 µM [10]: > 99%; inhibition at 1 µM [10]: > 99%; inhibition at 3 µM [10]: > 99% |
| Cc1cc(C)cc(Oc2cc(-c3ccc(C(C)(C)C)cc3)ccc2CCC(=O)O)c1 [Compound 499] | 77 | 98 | 15 | 14 | – |
| CC(C)(C)c1ccc(COc2ccc(N3CCN(c4ccc(OC(F)(F)F)cc4)CC3)cc2CCC(=O)O)cc1 [Compound 419] | 41 | 93 | – | – | Inhibition Rate of PAI-1 Activity (%) [3]: 98%; Inhibition Rate of PAI-1 Activity (%) [4]: >99% |
| O=C(O)C(=O)N(CCCCc1ccccc1)c1ccc(N2CCCCCC2)c(-c2ccc(OC(F)(F)F)cc2)c1 [Compound 674] | >99 | 98 | 5 | 55 | – |
| CCCCN(CC(=O)O)c1ccc(-c2ccc(OC(F)(F)F)cc2)cc1Oc1ccc(C(C)(C)C)cc1 [Compound 533] | 97 | 97 | 25 | 83 | – |
| CC(C)(C)c1ccc(Sc2cc(-c3ccc(OC(F)(F)F)cc3)ccc2/C=C/C(=O)O)cc1 [Compound 462] | 97 | 95 | 37 | 94 | – |
| CCCCCOc1ccc(-c2ccc(Oc3ccc(C(C)(C)C)cc3)c(OCC(=O)O)c2)cc1 [Compound 454] | >99 | >99 | 11 | 17 | – |
| CC(C)(C)c1ccc(CN(C(=O)CC(=O)O)c2ccc(-c3ccc(OC(F)(F)F)cc3)cc2)cc1 [Compound 608] | 11 | 59 | – | – | Inhibition Rate of PAI-1 Activity (%) [3]: 95%; Inhibition Rate of PAI-1 Activity (%) [4]: 95% |

| SMILES | Inhibition Rate of PAI-1 Activity (%) [1] [%] | Inhibition Rate of PAI-1 Activity (%) [2] [%] | Inhibition Rate of PAI-1 Activity (%) [5] [%] | Inhibition Rate of PAI-1 Activity (%) [6] [%] | further results |
| --- | --- | --- | --- | --- | --- |
| CC(C)(C)c1ccc(Cc2cc(-c3ccc(OC(F)(F)F)cc3)ccc2OCC(=O)O)cc1 [Compound 550] | 81 | >99 | 0 | 2 | – |
| CC(C)(C)Oc1ccc(-c2ccc(OC(F)(F)F)cc2)cc1N(CCCCc1ccccc1)C(=O)C(=O)O [Compound 373] | – | – | – | – | pIC50: 5.80 |
| CC(C)(C)c1ccc(Sc2cc(-c3ccc(OC(F)(F)F)cc3)ccc2/C=C\C(=O)O)cc1 [Compound 529] | 94 | >99 | 18 | 29 | – |
| CCCCCCCCOc1ccc(-c2ccc(OC(F)(F)F)cc2)cc1N(CCCCc1ccccc1)C(=O)C(=O)O [Compound 353] | – | – | – | – | pIC50 [7]: 6.29 |
| CC(C)(C)C1CCC(N(C(=O)C(=O)O)c2ccc(-c3ccc(OC(F)(F)F)cc3)cc2)CC1 (centres unmarked) [Compound 666] | – | – | – | – | Inhibition Rate of PAI-1 Activity (%) [8]: 0%; Inhibition Rate of PAI-1 Activity (%) (human PAI-1, compound concentration 0.3 μM, 0.3 µM): 21%; Inhibition Rate of PAI-1 Activity (%) [9]: 89%; Inhibition Rate of PAI-1 Activity (%) (human PAI-1, compound concentration 3 μM, 3 µM): 98% |
| CCCCC(Oc1cc(-c2cccc(C)c2)ccc1Oc1ccc(C(C)(C)C)cc1)C(=O)O (centres unmarked) [Compound 317] | – | – | – | – | pIC50 [7]: 6.19 |
| CCCCC(C(=O)O)N(Cc1ccc(C(C)(C)C)cc1)c1cccc(-c2ccc(OC(F)(F)F)cc2)c1 (centres unmarked) [Compound 641] | 95 | 95 | 9 | 53 | – |
| O=C(O)/C=C/c1ccc(-c2ccc(OC(F)(F)F)cc2)cc1Oc1ccc(OC(F)(F)F)cc1 [Compound 477] | 60 | >99 | 7 | 21 | – |
| CCCCC(Oc1cc(-c2ccc(OC(F)(F)F)cc2)ccc1Oc1ccccc1)C(=O)O (centres unmarked) [Compound 307] | – | – | – | – | pIC50 [7]: 5.82 |
| CCCCCCCCCOc1cc(N(CCCCc2ccccc2)C(=O)C(=O)O)ccc1-c1ccc(OC(F)(F)F)cc1 [Compound 389] | – | – | – | – | pIC50: > 7.00; inhibition at 1 µM [10]: > 99%; inhibition at 3 µM [10]: > 99% |
| CC(C)(C)c1ccc(Oc2cc(-c3ccccc3OC(F)(F)F)ccc2CCC(=O)O)cc1 [Compound 467] | 73 | >99 | 2 | 6 | – |
| CCCCCOc1ccc(-c2ccc(OC(F)(F)F)cc2)cc1CN(C(=O)C(=O)O)c1ccc(C(C)(C)C)cc1 [Compound 645] | 95 | >99 | 6 | 26 | – |
| CC(C)(C)c1ccc(Oc2ccc(-c3cccc(OC(F)(F)F)c3)cc2OCC(=O)O)cc1 [Compound 329] | – | – | – | – | pIC50 [7]: 5.76 |
| CCCCC(Oc1cc(-c2ccc(OC(F)(F)F)cc2)ccc1OCCCCc1ccccc1)C(=O)O (centres unmarked) [Compound 306] | – | – | – | – | pIC50 [7]: 6.06 |
| CC(C)(C)c1ccc(Oc2ccc(-c3ccc(C(C)(C)C)cc3)cc2OCC(=O)O)cc1 [Compound 453] | 96 | >99 | 4 | 15 | – |
| O=C(O)C(=O)N(CCCCc1ccccc1)c1cc(-c2ccc(OC(F)(F)F)cc2)ccc1N1CCCCC1 [Compound 370] | – | – | – | – | pIC50: 6.03 |
| CCCCC(Oc1cc(Oc2ccc(C(C)(C)C)cc2)cc(-c2ccc(OC(F)(F)F)cc2)c1)C(=O)O (centres unmarked) [Compound 426] | 95 | 97 | 10 | 29 | – |
| CCCCCOc1ccc(-c2ccc(OC(F)(F)F)cc2)cc1CN(CC(=O)O)c1ccc(C(C)(C)C)cc1 [Compound 647] | 95 | 98 | 27 | 43 | – |
| O=C(O)CCCCCCCCOc1ccc(-c2ccc(OC(F)(F)F)cc2)cc1N(CCCCc1ccccc1)C(=O)C(=O)O [Compound 646] | 38 | 86 | 4 | 15 | – |
| CCCCCOc1ccc(-c2ccc(C)cc2)cc1N(CCCCc1ccccc1)C(=O)C(=O)O [Compound 677] | 93 | 98 | 19 | 17 | – |

From patent US8633245B2, “PAI-1 inhibitor” (Institute of Medicinal Molecular Design, Inc., priority 2008, dated 2014)
